In PMC8989696, “Characterization of furathiocarb metabolism in in-vitro human liver microsomes and recombinant cytochrome P450 enzymes” (Toxicology Reports, 2022):
Values joined by “and” are separate entries in the source; they are usually repeats but may differ in a detail not shown here. Equal entries are not always repeated. Where two headings read alike, the source gives them in different places.

How the values were obtained:
[1] = Furathiocarb biotransformation kinetics in individual human hepatic microsomes (10 donors); format: in vitro ADME; details: for Km: human
Experimental: The incubation mixture (ﬁnal volume of 200 µl of 0.1 M phosphate buffer) contained 50 and 100 µM furathiocarb, 0.15 mg pooled liver microsomal protein (n = 10), and 1 mM NADPH. The reaction was initiated by NADPH after a 2 min pre-incubation at + 37 °C and was incubated for 30 min at + 37 °C. The reaction stopped with ice-cold acetonitrile containing an internal standard.
Enzyme kinetic parameters of both the microsomal samples and rCYP enzymes were measured. The incubation mixture contained furathiocarb (2.5, 10, 25, 50, 150 and 300 µM). Incubation times were 20 and 30 min for microsomal samples and rCYPs, respectively. Otherwise incubation mixtures and methods were the same as in metabolite identification. The rate of sum of furathiocarb metabolite formation was linear at least up to 0.15 mg protein/ml and 30 min incubation time in the standard experimental conditions.
The standard incubation mixture contained 50 and 100 µM furathiocarb, 0.15 mg pooled liver microsomal protein (n = 10), and 1 mM NADPH in a ﬁnal volume of 200 µl of 0.1 M phosphate buffer (pH 7.4). Furathiocarb was prepared once a week in dimethylsulfoxide (DMSO; ﬁnal amount in the reaction medium 1.0%). After a 2-min incubation at +37 ◦C in a shaking incubator block, the reaction was started by adding NADPH. The mixture was incubated at +37 ◦C for 30 min and the reaction was stopped with 600 µl of ice-cold acetonitrile containing an internal standard. All incubations were carried out in triplicate.

[2] = test system: human CYP activities other than CYP1A2, CYP2B6, CYP2C9, CYP2C19; test: N-in-one CYP inhibition assay, pooled human hepatic microsomes, other CYP activities; format: in vitro ADME; details: pooled human liver microsomes (n = 10), pH 7.4, furathiocarb 1–100 µM, read-out: Other IC50 values (remaining CYP activities of N-in-one assay)
Experimental: N-in-one (“cocktail”) assay for measuring major CYP activities simultaneously, [55], [56] was employed to investigate human CYP-furathiocarb inhibitory interactions in pooled human hepatic microsomes. Furathiocarb (ﬁnal concentrations in the incubation mixture were 1, 5, 25, 50, and 100 µM) was added to the incubation mixture. The N-in-one was used earlier for the study of pesticide interactions and the details of the incubations with furathiocarb are described in Supplementary materials.
The kinetic parameters Vmax and Km were calculated by nonlinear regression. Bivariate linear Pearson’s correlation coefﬁcients (r2) were calculated between metabolite formations and model activities in the livers. GraphPad Prism 9 Software (Inc., San Diego, CA) Prism 9.0.0 (San Diego, CA) was used for kinetic parameters and correlation coefﬁcients analysis. The IC50 values were determined by linear regression analysis using OriginPro 2020 (MicroCal Software, Inc., Northampton, MA.
N-in-one assay was performed to investigate human CYP-furathiocarb inhibitory interactions. Furathiocarb (ﬁnal concentrations in the incubation mixture were 1, 5, 25, 50, and 100 µM) was added to the incubation mixture.
The N-in-one assay, analytical method and authentic standards have been described previously (Abass and Pelkonen 2013; Tolonen et al. 2007; Turpeinen et al. 2005). […]

## CCCCOC(=O)N(C)SN(C)C(=O)Oc1cccc2c1OC(C)(C)C2 [furathiocarb, Furathiocarb]
[1]; HLM20
  CLint, sum of carbofuran metabolic pathway: 310.4 µL (mg protein min)
  CLint, sum of furathiocarb oxidation pathways: 12.63 µL (mg protein min)
  Vmax, sum of carbofuran metabolic pathway: 19.6 ± 1.7 nmol (mg protein min)
  Vmax, sum of furathiocarb oxidation pathways: 4.3 ± 0.8 nmol (mg protein min)
  carbofuran pathway / oxidation pathways (CLint ratio): 24.5 fold
[1]; HLM21
  CLint, sum of carbofuran metabolic pathway: 339.0 µL (mg protein min)
  CLint, sum of furathiocarb oxidation pathways: 9.22 µL (mg protein min)
  Vmax, sum of carbofuran metabolic pathway: 22.6 ± 2.5 nmol (mg protein min)
  Vmax, sum of furathiocarb oxidation pathways: 4.1 ± 1.1 nmol (mg protein min)
  carbofuran pathway / oxidation pathways (CLint ratio): 36.8 fold
[1]; HLM22
  CLint, sum of carbofuran metabolic pathway: 619.7 µL (mg protein min)
  Vmax, sum of carbofuran metabolic pathway: 44.5 nmol/ (mg protein min) and 44.5 ± 5.1 nmol/ (mg protein min)
[1]; HLM23
  CLint, sum of carbofuran metabolic pathway: 348.6 µL (mg protein min)
  CLint, sum of furathiocarb oxidation pathways: 13.48 µL (mg protein min)
  Vmax, sum of carbofuran metabolic pathway: 17.4 ± 1.6 nmol (mg protein min)
  Vmax, sum of furathiocarb oxidation pathways: 3.5 ± 7.3 nmol (mg protein min)
  carbofuran pathway / oxidation pathways (CLint ratio): 25.9 fold
[1]; HLM24
  CLint, sum of carbofuran metabolic pathway: 404.5 µL (mg protein min)
  CLint, sum of furathiocarb oxidation pathways: 12.25 µL (mg protein min)
  Vmax, sum of carbofuran metabolic pathway: 21.9 ± 2.1 nmol (mg protein min)
  Vmax, sum of furathiocarb oxidation pathways: 5.1 ± 1.3 nmol (mg protein min)
  carbofuran pathway / oxidation pathways (CLint ratio): 33.0 fold
[1]; HLM28
  CLint, sum of carbofuran metabolic pathway: 779.6 µL (mg protein min)
  CLint, sum of furathiocarb oxidation pathways: 6.75 µL (mg protein min)
  Vmax, sum of carbofuran metabolic pathway: 43.6 ± 4.7 nmol (mg protein min)
  Vmax, sum of furathiocarb oxidation pathways: 11.5 nmol/ (mg protein min) and 11.5 ± 6.4 nmol/ (mg protein min)
  carbofuran pathway / oxidation pathways (CLint ratio): 115 fold and 115.4 fold
[1]; HLM29
  CLint, sum of carbofuran metabolic pathway: 378.2 µL (mg protein min)
  CLint, sum of furathiocarb oxidation pathways: 10.73 µL (mg protein min)
  Vmax, sum of carbofuran metabolic pathway: 24.3 ± 2.5 nmol (mg protein min)
  Vmax, sum of furathiocarb oxidation pathways: 5.3 ± 1.4 nmol (mg protein min)
  carbofuran pathway / oxidation pathways (CLint ratio): 35.2 fold
[1]; HLM30
  CLint, sum of carbofuran metabolic pathway: 701.2 µL (mg protein min)
  CLint, sum of furathiocarb oxidation pathways: 10.99 µL (mg protein min)
  Vmax, sum of carbofuran metabolic pathway: 18.2 ± 1.8 nmol (mg protein min)
  Vmax, sum of furathiocarb oxidation pathways: 5.1 ± 1.3 nmol (mg protein min)
  carbofuran pathway / oxidation pathways (CLint ratio): 64 fold and 63.8 fold
[1]; HLM31
  CLint, sum of carbofuran metabolic pathway: 244 µl/ (mg protein min) and 244.3 µl/ (mg protein min)
  CLint, sum of furathiocarb oxidation pathways: 7.0 µl/ (mg protein min) and 7.00 µl/ (mg protein min)
  Vmax, sum of carbofuran metabolic pathway: 15.5 nmol/ (mg protein min) and 15.5 ± 1.1 nmol/ (mg protein min)
  Vmax, sum of furathiocarb oxidation pathways: 1.7 nmol/ (mg protein min) and 1.7 ± 0.3 nmol/ (mg protein min)
  carbofuran pathway / oxidation pathways (CLint ratio): 34.9 fold
[1]; HLM32
  CLint, sum of carbofuran metabolic pathway: 399.9 µL (mg protein min)
  CLint, sum of furathiocarb oxidation pathways: 13.04 µL (mg protein min)
  Vmax, sum of carbofuran metabolic pathway: 15.5 nmol/ (mg protein min) and 15.5 ± 1.4 nmol/ (mg protein min)
  Vmax, sum of furathiocarb oxidation pathways: 3.7 ± 0.6 nmol (mg protein min)
  carbofuran pathway / oxidation pathways (CLint ratio): 30.6 fold
[1]; pH 7.4, HLM20, read-out: Km, sum of carbofuran metabolic pathway
  Km: 63.2 ± 16.3 µM
[1]; pH 7.4, HLM20, read-out: Km, sum of furathiocarb oxidation pathways
  Km: 343 ± 128 µM
[1]; pH 7.4, HLM21, read-out: Km, sum of carbofuran metabolic pathway
  Km: 66.7 ± 20.6 µM
[1]; pH 7.4, HLM21, read-out: Km, sum of furathiocarb oxidation pathways
  Km: 453 ± 215 µM
[1]; pH 7.4, HLM22, read-out: Km, sum of carbofuran metabolic pathway
  Km: 71.8 ± 21.7 µM
[1]; pH 7.4, HLM23, read-out: Km, sum of carbofuran metabolic pathway
  Km: 50 ± 14.1 µM
[1]; pH 7.4, HLM23, read-out: Km, sum of furathiocarb oxidation pathways
  Km: 260 ± 117 µM
[1]; pH 7.4, HLM24, read-out: Km, sum of carbofuran metabolic pathway
  Km: 54.3 ± 16.1 µM
[1]; pH 7.4, HLM24, read-out: Km, sum of furathiocarb oxidation pathways
  Km: 410 ± 197 µM
[1]; pH 7.4, HLM28, read-out: Km, sum of carbofuran metabolic pathway
  Km: 55.8 ± 18 µM
[1]; pH 7.4, HLM28, read-out: Km, sum of furathiocarb oxidation pathways
  Km: 1710 ± 852 µM
[1]; pH 7.4, HLM29, read-out: Km, sum of carbofuran metabolic pathway
  Km: 64.2 ± 18.9 µM
[1]; pH 7.4, HLM29, read-out: Km, sum of furathiocarb oxidation pathways
  Km: 495 ± 237 µM
[1]; pH 7.4, HLM30, read-out: Km, sum of carbofuran metabolic pathway
  Km: 25.9 ± 9.5 µM
[1]; pH 7.4, HLM30, read-out: Km, sum of furathiocarb oxidation pathways
  Km: 456 ± 208 µM
[1]; pH 7.4, HLM31, read-out: Km, sum of carbofuran metabolic pathway
  Km: 63.3 ± 13.4 µM
[1]; pH 7.4, HLM31, read-out: Km, sum of furathiocarb oxidation pathways
  Km: 239 ± 79.5 µM
[1]; pH 7.4, HLM32, read-out: Km, sum of carbofuran metabolic pathway
  Km: 38.8 ± 11.3 µM
[1]; pH 7.4, HLM32, read-out: Km, sum of furathiocarb oxidation pathways
  Km: 280 ± 102 µM
[1]; range in 10-donor panel of hepatic microsomes
  Ratio carbofuran metabolic pathway / furathiocarb oxidation pathway: 24- to 115 fold
[2]
  IC50 at 20 min: > 100 µM
